In data set [1] the test system is five human cancer cell lines (HepG2, HeLa, MCF-7, A549 and SW1990). The data set is described as follows: In vitro anti-proliferative SRB assay, summary statements over the five-line panel. The format is cell-based. On the procedure: With a aim of identifying potential anticancer agents with enhanced levels of activity, as well as verifying the conclusions provided above, we took a14 as a starting compound, and then designed and synthesized a series of chalcones b1–42 bearing methoxy groups at the 2' and 6'-positions of the B-ring, whilst varying the substituents on the A-ring. The cytotoxicities of the resulting chalcones were evaluated in vitro against five human cancer cell lines and other two non-tumoral cell lines, including HepG2, HeLa, MCF-7, A549, SW1990, HMLE and L02, and the results are shown in Table 2.
HepG2 and MCF7 cells were grown in the Eagle’s minimum essential medium with Earle’s balanced salts (MEM-EBSS) medium, HeLa, A549 and L02 cells were grown in Dulbecco’s Modified Eagle Media (DMEM), SW1990 cells were grown in RPMI-1640 medium, and HMLE cell were grown in DMEM/F-12 medium. The media were supplemented with 100 U/mL penicillin, […] streptomycin and 10% fetal bovine serum (FBS), and incubated at 37 °C in a humidified atmosphere containing 5% CO2.
Cells were seeded into 96-well plates (4000 cells/well) and incubated at 37 °C in a humidified 5% CO2 atmosphere. After 24 h, the cells were treated with different concentrations of the compounds for 48 h in triplicate to generate dose-response curves. Cell viability was evaluated using the sulforhodamine B (SRB) assay as previous described. […] Etoposide was used as the positive control.
A general note: In SRB staining, fixed cells bind dye roughly in proportion to their protein.

Data set [2] has as its system HepG2 cells. The data set is described as follows: In vitro anti-proliferative SRB assay, HepG2. It is filed as cell-based, human. As to conditions: for IC50: Homo sapiens, HepG2, increasing concentrations up to 30 μM, mean ± SD of at least three independent experiments; for SI (CC50 HMLE/IC50 HepG2) / SI (CC50 L02/IC50 HepG2): selectivity index; for SI (CC50 HMLE/IC50 HepG2): HMLE vs HepG2; for SI (CC50 L02/IC50 HepG2): L02 vs HepG2.

Data set [3] has as its system SW1990 cells. The data set is described as follows: In vitro anti-proliferative SRB assay, SW1990. As to conditions: for IC50: Homo sapiens, SW1990, increasing concentrations up to 30 μM, mean ± SD of at least three independent experiments; for SI (CC50 HMLE/IC50 SW1990) / SI (CC50 L02/IC50 SW1990): selectivity index; for SI (CC50 HMLE/IC50 SW1990): HMLE vs SW1990; for SI (CC50 L02/IC50 SW1990): L02 vs SW1990. It is filed as cell-based, human.

Data set [4] concerns MCF-7 cells. The data set is described as follows: In vitro anti-proliferative SRB assay, MCF-7. The format is cell-based, human. Particulars: for IC50: Homo sapiens, MCF7, increasing concentrations up to 30 μM, mean ± SD of at least three independent experiments; for SI (CC50 HMLE/IC50 MCF7) / SI (CC50 L02/IC50 MCF7): selectivity index; for SI (CC50 HMLE/IC50 MCF7): HMLE vs MCF7; for SI (CC50 L02/IC50 MCF7): L02 vs MCF7.

Data set [5] in a line: Cytotoxicity (SRB) against non-tumoral HMLE cells. As to conditions: human, HMLE cells (non-tumoral human mammary epithelial cells); increasing concentrations up to 100 μM; mean ± SD of at least three independent experiments; read-out: Normal Human Cell Lines, CC50, HMLE. It is filed as cell-based, human.
Data set [6] in a line: Cytotoxicity (SRB) against non-tumoral L02 cells. The format is cell-based, human. As to conditions: human, L02 cells (non-tumoral human liver cell line); increasing concentrations up to 100 μM; mean ± SD of at least three independent experiments; read-out: Normal Human Cell Lines, CC50, L02.
For data set [7], the system named is HeLa cells. The data set is described as follows: In vitro anti-proliferative SRB assay, HeLa. Particulars: for IC50: Homo sapiens, HeLa, increasing concentrations up to 30 μM, mean ± SD of at least three independent experiments; for SI (CC50 HMLE/IC50 Hela) / SI (CC50 L02/IC50 Hela): selectivity index; for SI (CC50 HMLE/IC50 Hela): HMLE vs HeLa; for SI (CC50 L02/IC50 Hela): L02 vs HeLa. It is filed as cell-based, human.

Data set [8] relates to A549 cells. The data set is described as follows: In vitro anti-proliferative SRB assay, A549. The format is cell-based, human. Particulars: for IC50: Homo sapiens, A549, increasing concentrations up to 30 μM, mean ± SD of at least three independent experiments; for SI (CC50 HMLE/IC50 A549) / SI (CC50 L02/IC50 A549): selectivity index; for SI (CC50 HMLE/IC50 A549): HMLE vs A549; for SI (CC50 L02/IC50 A549): L02 vs A549.

Setting [9] is: Homo sapiens, nearly all of the IC50 values.
The mark [10] stands for this setting: most of their in vitro IC50 values against the five human cancer lines.

Each structure is given as a SMILES string.

Regarding `COc1cccc(OC)c1/C=C/C(=O)c1ccc([N+](=O)[O-])cc1` [b40, (E)-1-(4-Nitrophenyl)-3-(2,6-dimethoxyphenyl)prop-2-en-1-one], the melting point (commonly the temperature, or range, at which the solid turns liquid) was 147.3 to 148.6 °C. In addition, the IC50 (usually the concentration that inhibits the measured activity by half) in data set [1] (setting [9]) is over 30 µM. This molecule also came in with an IC50 in [2] of over 30 µM. In [3], this molecule yielded a concentration for half-maximal inhibition (IC50) of over 30 µM. Besides, the IC50 in data set [4] was over 30 µM. Also, the half-maximal cytotoxic concentration (CC50) – broadly, the concentration at which the toxic effect on the cells reaches its halfway point – at 48 h in data set [5] is over 100 µM. Besides, in data set [6], the 50% cytotoxic concentration (CC50) at 48 h was over 100 µM. In data set [7], the 50% inhibitory concentration (IC50) is over 30 µM. In data set [8], this molecule gave an IC50 of over 30 µM.
`COc1cccc(OC)c1/C=C/C(=O)c1ccc(-c2ccccc2)cc1` [b22, (E)-1-([1,1'-Biphenyl]-4-yl)-3-(2,6-dimethoxyphenyl)prop-2-en-1-one]: the melting point fell in the range of 121.7 to 123.5 °C. In data set [1] (setting [10]), this molecule registered an IC50 of under 10 µM. Moreover, the “fold as potent than etoposide” value in data set [2] (HepG2 cells, ratio of IC50 values versus etoposide) turned out to be 20.4 fold. Also, in data set [2], the IC50 worked out at 0.25 ± 0.03 µM, the “SI (CC50 HMLE/IC50 HepG2)” value amounted to 8.8 and the “SI (CC50 L02/IC50 HepG2)” value is recorded as 58.2. Also, in data set [3], the concentration for half-maximal inhibition (IC50) is 1.24 ± 0.08 µM, the “SI (CC50 HMLE/IC50 SW1990)” value turned out to be 1.8 and the “SI (CC50 L02/IC50 SW1990)” value was 11.7. The “fold as potent than etoposide” value in data set [3] (SW1990 cells, ratio of IC50 values versus etoposide) is reported as 23.6 fold. In data set [4], the IC50 was found to be 2.4 ± 0.08 µM, the “SI (CC50 HMLE/IC50 MCF7)” value amounted to 0.9 and the “SI (CC50 L02/IC50 MCF7)” value is recorded as 6.1. Also, the 50% cytotoxic concentration (CC50) at 48 h in data set [5] is 2.21 ± 0.09 µM. In addition, the half-maximal cytotoxic concentration (CC50) at 48 h in [6] worked out at 14.5 ± 6.58 µM. Besides, in data set [7], the IC50 was 0.87 ± 0.25 µM, the “SI (CC50 HMLE/IC50 Hela)” value came to 2.5 and the “SI (CC50 L02/IC50 Hela)” value was found to be 16.7. In addition, in [8], half-maximal inhibition (IC50) was put at 1.75 ± 0.15 µM, the “SI (CC50 HMLE/IC50 A549)” value amounted to 1.3 and the “SI (CC50 L02/IC50 A549)” value is on record as 8.3.
`COc1cccc(OC)c1/C=C/C(=O)c1cc(C(F)(F)F)cc(C(F)(F)F)c1` [b42, (E)-1-(3,5-bis(Trifluoromethyl)phenyl)-3-(2,6-dimethoxyphenyl)prop-2-en-1-one] showed a melting point of 126.5 to 127.8 °C. In data set [1] (setting [9]), this molecule had a half-inhibitory concentration (IC50) of over 30 µM. This molecule also gave an IC50 in data set [2] of over 30 µM. In [3], this molecule came in with a half-maximal inhibitory concentration (IC50) of over 30 µM. In [4], the IC50 is over 30 µM. In [5], the CC50 at 48 h is over 100 µM. Moreover, in data set [6], the CC50 at 48 h is over 100 µM. In data set [7], the IC50 was over 30 µM. In addition, the IC50 in [8] is over 30 µM.
The molecule `COc1cccc(OC)c1/C=C/C(=O)c1cccc(N)c1` [b23, (E)-1-(3-Aminophenyl)-3-(2,6-dimethoxyphenyl)prop-2-en-1-one] registered a melting point of 148.6 to 150.3 °C. Further, the half-inhibitory concentration (IC50) in data set [1] (setting [10]) is under 10 µM. In data set [2], the concentration for half-maximal inhibition (IC50) amounted to 5.7 ± 0.09 µM, the “SI (CC50 HMLE/IC50 HepG2)” value was 2.0 and the “SI (CC50 L02/IC50 HepG2)” value was determined as 7.6. Further, in data set [3], the IC50 came out at 10.07 ± 0.03 µM, the “SI (CC50 HMLE/IC50 SW1990)” value stood at 1.1 and the “SI (CC50 L02/IC50 SW1990)” value came out at 4.3. In data set [4], the IC50 worked out at 8.56 ± 0.75 µM, the “SI (CC50 HMLE/IC50 MCF7)” value stood at 1.3 and the “SI (CC50 L02/IC50 MCF7)” value is listed as 5.0. In addition, in [5], the CC50 at 48 h is 11.4 ± 0.76 µM. Besides, the CC50 at 48 h in [6] was 43.2 ± 11.7 µM. In addition, in data set [7], the 50% inhibitory concentration (IC50) was found to be 7.23 ± 0.07 µM, the “SI (CC50 HMLE/IC50 Hela)” value worked out at 1.6 and the “SI (CC50 L02/IC50 Hela)” value stood at 6.0. In data set [8], the half-inhibitory concentration (IC50) is 7.32 ± 0.29 µM, the “SI (CC50 HMLE/IC50 A549)” value came out at 1.6 and the “SI (CC50 L02/IC50 A549)” value is listed as 5.9.

The values are drawn from PMC6271338, “Synthesis and Cytotoxic Evaluation of Alkoxylated Chalcones” (Molecules, 2014).
